Experimental data taken from patent publication US20260193254A1, “2-OXOQUINAZOLINE CRYSTALLINE FORMS” (IDEAYA Biosciences, Inc., priority 2022, published 2026).
In brackets after ≈: the same amount, converted by molar mass. Marks after values point to notes of the source that are not given here.

How the values were obtained:
Format in all cases: physicochemical
[1] = Equilibration with solvents at 25° C. for 2 weeks; details: equilibration at 25° C. for 2 weeks
Protocol: Obtained suspension was filtered. The solid part (wet cake) was investigated by XRPD. When differences were observed, additional investigations were performed (e.g. DSC, TGA etc.).

[2] = Crystallization at room temperature by slow evaporation; details: ambient condition
Excerpt: Combined with approximate solubility experiment, solubility samples were filtered by 0.45 μm nylon filter. Obtained solutions were slow evaporated at ambient condition. Solid residues were examined for their polymorphic form.

[3] = Water activity study; details: protected by kapton film
Excerpt: These solvent mixtures were saturated with the compound of Formula (I) before addition of the polymorph seeds. […] These solvent mixtures were saturated with the compound of Formula (I) before addition of the polymorph seeds. Obtained suspension was filtered. Solid part (wet cake) was investigated by XRPD.

[4] = Bulk stability of crystalline forms; details: for Purity, Bulk (HPLC): Solid state
Excerpt: (§1) Solids obtained after bulk stability study were characterized by XRPD and HPLC.

[5] = Equilibrium solubility in FeSSIF and FaSSIF; details: 24 hours; for Solubility: target concentration 1 mg/mL, HPLC method 1 or 2 (footnote); for impurity in solubility sample: no unit printed for impurity (column head mg/mL)
Protocol: (§2) Solid part and liquid part were separated by filtration. Solubility was measured by HPLC. Solid part (wet cake) was investigated by XRPD.

[6] = Equilibrium solubility in SGF (pH 2.0), 0.1 N HCl (pH 1.2) and phosphate buffer (pH 8.0); details: 24 hours; for solubility at 24 h: 37 °C, thermodynamic from solid, target concentration 1 mg/mL, HPLC method 2
Protocol: as §2

[7] = Intrinsic dissolution rate (IDR) evaluation in FaSSIF; details: FaSSIF at 37° C.
Protocol: Only one surface of the pellet was exposed (surface area=0.50 cm^2) to 900 mL FaSSIF, the dissolution medium. Temperature of chamber medium was set as 37±0.5° C. Shaft rotation as 100 rpm and sampling time points as 2 min, 5 min, 10 min, 15 min, 20 min, 25 min, 30 min, 35 min, 40 min, 50 min, 60 min, and 120 min. 2 mL sample solution was withdrawn at each time point and centrifuged at 14,000 rpm for 5 min to isolate supernatant. Then concentration of the supernatant was analyzed by HPLC. After 120 min, XRPD of disc surface was measured.

[8] = Bulk stability of crystalline forms; design: key: Color A: All No change of color; details: Solid state
Excerpt: as §1

[9] = 25° C./92% RH, open container, 1 week
[10] = 25° C./92% RH, open container, 2 weeks
[11] = 40° C./75% RH, open container, 1 week
[12] = 40° C./75% RH, open container, 2 weeks
[13] = 60° C., tight container, 1 week
[14] = 60° C., tight container, 2 weeks
[15] = pH 8 (phosphate buffer), 37° C.

SMILES: Nc1nc(=O)n(-c2ccccc2Cl)c2nc(C(F)(F)F)ccc12 [solid state Form V, 4-Amino-1-(2-chlorophenyl)-7-(trifluoromethyl)pyrido[2,3-d]pyrimidin-2(1H)-one]
- Crystalline Form ([1]; Acetone (63 mg/mL)): Form G
- Crystalline Form ([1]; Acetone/water = 1/1 (v/v) (63 mg/mL)): Form G
- Crystalline Form ([1]; Acetonitrile/water = 1/1 (v/v) (62 mg/mL)): Form A
- Crystalline Form ([1]; Ethanol/water = 1/1 (v/v) (64 mg/mL)): Form C (hemi-hydrate)
- Crystalline Form ([1]; Methanol (65 mg/mL)): Form C (hemi-hydrate)
- Crystalline Form ([1]; Methanol/water = 1/1 (v/v) (64 mg/mL)): Form E (hemi-hydrate)
- Crystalline Form ([1]; t-Butyl methyl ether (65 mg/mL)): Form H (MTBE solvate)
- Crystalline Form ([1]; t-Butyl methyl ether/water = 95/5(v/v) (63 mg/mL)): Form H (MTBE solvate)
- Crystalline Form formed by slow evaporation ([2]; SE1 Methanol (15 mg/mL)): Solid state Form V
- Crystalline Form formed by slow evaporation ([2]; SE2 Ethanol (7 mg/mL)): Form F with low crystalline
- Crystalline Form formed by slow evaporation ([2]; SE3 2-Propanol (5 mg/mL)): Form J (IPA solvate)
- Crystalline Form formed by slow evaporation ([2]; SE6 Acetone (5 mg/mL)): Form G
- Crystalline Form formed by slow evaporation ([2]; SE7 Methyl ethyl ketone (5 mg/mL)): Form G
- Crystalline Form formed by slow evaporation ([2]; SE9 Tetrahydrofuran (5 mg/mL)): Form K
- Crystalline Form formed by slow evaporation ([2]; SE12 Methanol/Ethyl acetate = 1/1 (v/v) (7 mg/mL)): Solid state Form V
- Crystalline Form formed by slow evaporation ([2]; SE13 Methanol/Acetonitrile = 1/1 (v/v) (11 mg/mL)): Solid state Form V
- Form obtained in water activity study (XRPD) ([3]; AW4 EtOH/water = 0.4/0.6 (v/v) aw = 0.91, 25° C. (4 days)): Form F (protected by kapton film)
- Form obtained in water activity study (XRPD) ([3]; AW5 EtOH/water = 0.3/0.7 (v/v) aw = 0.93, 25° C. (4 days)): Form F (protected by kapton film)
- Form obtained in water activity study (XRPD) ([3]; AW6 EtOH/water = 0.2/0.8 (v/v) aw = 0.95, 25° C. (4 days)): Form F (protected by kapton film)^a
- Form obtained in water activity study (XRPD) ([3]; AW7 EtOH/water = 0.1/0.9 (v/v) aw = 0.97, 25° C. (4 days)): Form E (protected by kapton film)
- Form obtained in water activity study (XRPD) ([3]; AW8 MeOH aw = 0.0, 25° C. (4 days)): Form C (protected by kapton film)
- Form obtained in water activity study (XRPD) ([3]; AW9 MeOH/water = 0.970/0.030 (v/v) aw = 0.1, 25° C. (4 days)): Form F (protected by kapton film)
- Form obtained in water activity study (XRPD) ([3]; AW10 MeOH/water = 0.930/0.070 (v/v) aw = 0.2, 25° C. (4 days)): Form F (protected by kapton film)
- Form obtained in water activity study (XRPD) ([3]; AW11 MeOH/water = 0.893/0.107 (v/v) aw = 0.3, 25° C. (4 days)): Form F (protected by kapton film)
- Form obtained in water activity study (XRPD) ([3]; AW12 MeOH/water = 0.775/0.225 (v/v) aw = 0.5, 25° C. (4 days)): Form F (protected by kapton film)
- Form obtained in water activity study (XRPD) ([3]; AW13 MeOH/water = 0.580/0.420 (v/v) aw = 0.7, 25° C. (4 days)): Form F (protected by kapton film)
- Form obtained in water activity study (XRPD) ([3]; AW14 MeOH/water = 0.4/0.6 (v/v) aw = 0.81, 25° C. (4 days)): Form E (protected by kapton film)
- Form obtained in water activity study (XRPD) ([3]; AW15 MeOH/water = 0.3/0.7 (v/v) aw = 0.86, 25° C. (4 days)): Form E (protected by kapton film)
- Form obtained in water activity study (XRPD) ([3]; AW16 MeOH/water = 0.2/0.8 (v/v) aw = 0.91, 25° C. (4 days)): Form E (protected by kapton film)
- Form obtained in water activity study (XRPD) ([3]; AW17 MeOH/water = 0.1/0.9 (v/v) aw = 0.96, 25° C. (4 days)): Form E (protected by kapton film)
- Form obtained in water activity study (XRPD) ([3]; AW18 Water aw = 1.0, 25° C. (4 days)): Form E (protected by kapton film)^b
- Purity, Bulk (HPLC) [4, 9]: 98.9%
- Purity, Bulk (HPLC) [4, 10]: 98.9%
- Purity, Bulk (HPLC) [4, 11]: 98.9%
- Purity, Bulk (HPLC) [4, 12]: 98.7%
- Purity, Bulk (HPLC) [4, 13]: 98.8%
- Purity, Bulk (HPLC) [4, 14]: 98.9%
- Initial purity ([4]; before stress, HPLC): 98.9%
- chemical stability and physical stability (bulk stability) ([4]; stressed under 25° C./92 RH, 40% C/75% RH and 60° C., XRPD and HPLC): good chemical stability and physical stability
- final pH ([5]; FaSSIF, pH 6.5, 37° C.): 6.5
- Solubility ([5]; FaSSIF, pH 6.5, 37° C.): 100 µg/mL (≈ 294 µM)
- impurity in solubility sample ([5]; FaSSIF, pH 6.5, 37° C.): no impurity
- final pH ([5]; FeSSIF, pH 5.0, 37° C.): 5.0
- Solubility ([5]; FeSSIF, pH 5.0, 37° C.): 260 µg/mL (≈ 763 µM)
- impurity in solubility sample ([5]; FeSSIF, pH 5.0, 37° C.): no impurity
- solubility at 24 h ([6]; 0.1 N HCl, pH 1.2, simulated gastric fluid, pH 1.2 (0.1N HCl)): 150 µg/mL (≈ 440 µM)
- final pH ([6]; SGF, pH 2.0, 37° C.): 2.3
- final pH ([6]; pH 1.2 (0.1N HCl), 37° C.): 1.3
- XRPD of solid after solubility test [6, 15]: Solid state Form V
- final pH [6, 15]: 8.0
- impurity in solubility sample [6, 15]: no impurity
- solubility at 24 h ([6]; phosphate buffer, pH 8, aqueous buffer, pH 8 (phosphate buffer)): 40 µg/mL (≈ 117 µM)
- solubility at 24 h ([6]; simulated gastric fluid (SGF), pH 2, simulated gastric fluid, SGF, pH 2.0, 37° C.): 70 µg/mL (≈ 205 µM)
- XRPD after IDR ([7]; disc surface after 120 min): No form change
- Concentration detected during IDR test (Comments) ([7]; for Form V and Form A remains same during the whole process, LOQ for Form T and amorphous form): (0.006 mg/mL)
- Color [8, 9]: A
- Color [8, 10]: A
- Color [8, 11]: A
- Color [8, 12]: A
- Color [8, 13]: A
- Color [8, 14]: A
